Patent US11746370B2, “Methods and compositions for assessing and treating intraocular diseases and disorders” (SMILEBIOTEK ZHUHAI LIMITED, priority 2017, dated 2023)
“Also recorded” adds a separate entry of the source.

Experiments:
[1] = system: Bacillus megaterium; test: Antibiotic sensitivity screening test in petri dishes, minimum inhibitory concentration (MIC) method; type: cell-based; conditions: FIG. 27; for sensitivity of Bacillus megaterium / control of its growth in vitro: agar medium with antibiotic, 1*10^7 bacteria per culture, 37° C., 24 h
Method: The bacterial culture medium (HuanKai Microbial, Guangzhou, China) containing peptone 5 g, beef extract 3 g, NaCl 5 g, agar 15 g, and MnSO4 5 mg in 1 L ddH2O (pH=7.2) was prepared in conical flask (Drtech, Guangzhou, China) and was sterilized in the autoclave (HIRAYAMA, HEV-50, Japan) at 121° C. for 30 min. Antibiotics (ampicillin, vancomycin, neomycin, metronidazole, and tetracycline, purchased from Sigma, USA) at various concentrations were added into cooled medium. Bacillus megaterium (total 1*10^7 per culture) was cultured in the incubator (HettCube 200, Germany) at 37° C. for 24 h.
To test whether antibiotics can control the growth of Bacillus megaterium in vitro and in vivo, an antibiotic sensitivity screening test in petri dishes was carried out. The sensitivity of Bacillus megaterium to several major antimicrobial agents including Ampicillin, vancomycin, neomycin, metronidazole, and tetracycline were examined using the minimum inhibitory concentration (MIC) method.

[2] = system: Bacillus megaterium; test: Bacillus megaterium subretinal inoculation model, bacteria-induced drusenoid pathology in monkey retinal tissues; type: in vivo; conditions: intravitreous 0.5 mg, one injection on Day 2 post bacterial inoculation, FIG. 28
Method: The macaques were sedated by intramuscular injection of a mixture of tiletamine hydrochloride (2.5 mg/kg) and xolazepam hydrochloride (2.5 mg/kg). After instilling topical anesthesia (0.5% proparacaine hydrochloride), the eyes were immediately visualized in vivo using a light microscope. The pupils were then dilated with 0.5% tropicamide and 0.5% phenylephrine to obtain the fundus photographs. Then a 35 gauge anterior chamber cannula was inserted through a sclerotomy and advanced through the vitreous. Under microscopic monitoring, […] of PBS (with or without bacteria) was injected into the subretinal space between photo receptors and RPE, using a NanoFil Syringe Nanofil-100 for Microinjection (World Precision Instruments, USA). All procedures were done using sterile instruments. The macaque was euthanized 47 days post inoculation and the eyeball was enucleated for histological analyses. The eyeballs were fixed in 4% paraformaldehyde for 48 h and then embedded in paraffin. Sections were cut on a microtome at 6 μm and stained with H&E.
(§1) Next, Bacillus megaterium subretinal inoculation model was used to test whether antibiotics might be able to change the bacteria-induced drusenoid pathology in monkey retinal tissues.

[3] = Intraocular administration in monkey, ocular complications; type: in vivo; conditions: data not shown
Source text: as §1

| Compound | sensitivity of Bacillus megaterium / control of its growth in vitro [1] | size of drusenoid lesion in retinal tissue [2] | ocular complications [3] | fold less effective in controlling the growth of Bacillus megaterium ([1]; compared with neomycin) [fold] |
| --- | --- | --- | --- | --- |
| CN[C@H](CC(C)C)C(=O)N[C@H]1C(=O)N[C@@H](CC(N)=O)C(=O)N[C@H]2C(=O)N[C@H]3C(=O)N[C@H](C(=O)N[C@H](C(=O)O)c4cc(O)cc(O)c4-c4cc3ccc4O)[C@H](O)c3ccc(c(Cl)c3)Oc3cc2cc(c3O[C@@H]2O[C@H](CO)[C@@H](O)[C@H](O)[C@H]2O[C@H]2C[C@](C)(N)[C@H](O)[C@H](C)O2)Oc2ccc(cc2Cl)[C@H]1O [vancomycin] | able to inhibit the growth | reduction in the size of drusenoid lesion | – | – |
| neomycin | most sensitive; also recorded: best in vitro activity | – | significant ocular complications including ophthalmatrophia | – |
| Cc1ncc([N+](=O)[O-])n1CCO [metronidazole] | – | – | – | 10000 |
